From ChEMBL document CHEMBL4334438, “Discovery of novel glycogen synthase kinase-3α inhibitors: Structure-based virtual screening, preliminary SAR and biological evaluation for treatment of acute myeloid leukemia” (Eur J Med Chem, 2019)
The source made the active and inactive calls. No cut-off for these calls is given here.

How the values were obtained:
[1] = target: Citron Rho-interacting kinase (Homo sapiens) (UniProt O14578); experiment: Inhibition of recombinant human CRIK assessed as residual activity at 1 uM KKLRRTLSVA as substrate incubated 120 mins by scintillation counting method relative to control
Homo sapiens = species on record: Homo sapiens; experiment: Selectivity index, ratio of IC50 for inhibition of human GSK-3beta H350L mutant (2 to end residues) to IC50 for inhibition of human GSK-3alpha S449A mutant (2 to end residues)
[2] = target: Glycogen synthase kinase-3 alpha (Homo sapiens, UniProt P49840); experiment: Inhibition of GSK-3alpha phosphorylation at Y279 residue in human NB4 cells after 24 hrs by Western blot analysis; assay type: cell-based
NB-4 [3] = experiment: Induction of monocytic differentiation in human NB4 cells assessed as increase in CD11c-APC positive cells at 30 uM after 6 days by flow cytometry analysis; assay type: functional, cell-based
HL-60 [4] = experiment: Induction of monocytic differentiation in human HL60 monocytic assessed as increase in CD11c-APC positive cells at 30 uM after 6 days by flow cytometry analysis; assay type: functional, cell-based
[5] = Activation of wnt/beta-catenin signalling pathway in human HL60 cells assessed as stabilization of beta-catenin at 1 to 30 uM after 24 hrs by Western blot analysis; assay type: cell-based
[6] = target: Serine/threonine-protein kinase LATS1 (Homo sapiens) (UniProt O95835); experiment: Inhibition of human LATS1 assessed as residual activity at 1 uM by radiometric assay relative to control
[7] = Activation of wnt/beta-catenin signalling pathway in human NB4 cells assessed as stabilization of beta-catenin at 1 to 30 uM after 24 hrs by Western blot analysis; assay type: cell-based
[8] = target: Casein kinase I isoform epsilon (Homo sapiens) (UniProt P49674); experiment: Inhibition of recombinant human CK1epsilon assessed as residual activity at 1 uM using KRRRALS(p)VASLPGL as substrate incubated for 120 mins in presence of [gamma-33ATP] by scintillation counting based radiometry assay relative to control
[9] = target: Casein kinase I isoform alpha (Homo sapiens) (UniProt P48729); experiment: Inhibition of recombinant human CK1alpha expressed in Escherichia coli assessed as residual activity at 1 uMu sing CK1 peptide as substrate preincubated for 15 mins followed by substrate addition and measured after 30 mins in presence of [gamma-33ATP] by scintillation counting method relative to control; details: 1 uM
NB-4 [10] = experiment: Inhibition of colony formation in human NB4 cells preincubated for 72 hrs followed by compound washout and measured after 7 to 10 days; assay type: functional, cell-based
HL-60 [11] = experiment: Induction of cell differentiation in human HL60 cells assessed as increase in CD11b-APC-Cy7 positive cells after 6 days by flow cytometry analysis; assay type: functional, cell-based

Chain of Glycogen synthase kinase-3 alpha (P49840 2-483 limits assumed): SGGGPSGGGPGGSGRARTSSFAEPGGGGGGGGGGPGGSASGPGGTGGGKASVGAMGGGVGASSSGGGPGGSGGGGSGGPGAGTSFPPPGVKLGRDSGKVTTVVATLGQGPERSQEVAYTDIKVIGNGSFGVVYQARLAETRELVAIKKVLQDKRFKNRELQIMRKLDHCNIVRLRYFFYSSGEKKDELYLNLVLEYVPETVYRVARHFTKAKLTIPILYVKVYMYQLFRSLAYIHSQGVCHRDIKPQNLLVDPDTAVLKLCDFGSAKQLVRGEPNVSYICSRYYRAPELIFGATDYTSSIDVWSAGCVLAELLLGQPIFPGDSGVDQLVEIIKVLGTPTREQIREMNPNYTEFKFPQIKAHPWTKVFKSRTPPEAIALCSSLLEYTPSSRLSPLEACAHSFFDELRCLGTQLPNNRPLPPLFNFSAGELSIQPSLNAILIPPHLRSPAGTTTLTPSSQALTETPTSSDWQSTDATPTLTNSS
Chain of Casein kinase I isoform epsilon (Homo sapiens) (P49674 whole entry, looked up, canonical isoform): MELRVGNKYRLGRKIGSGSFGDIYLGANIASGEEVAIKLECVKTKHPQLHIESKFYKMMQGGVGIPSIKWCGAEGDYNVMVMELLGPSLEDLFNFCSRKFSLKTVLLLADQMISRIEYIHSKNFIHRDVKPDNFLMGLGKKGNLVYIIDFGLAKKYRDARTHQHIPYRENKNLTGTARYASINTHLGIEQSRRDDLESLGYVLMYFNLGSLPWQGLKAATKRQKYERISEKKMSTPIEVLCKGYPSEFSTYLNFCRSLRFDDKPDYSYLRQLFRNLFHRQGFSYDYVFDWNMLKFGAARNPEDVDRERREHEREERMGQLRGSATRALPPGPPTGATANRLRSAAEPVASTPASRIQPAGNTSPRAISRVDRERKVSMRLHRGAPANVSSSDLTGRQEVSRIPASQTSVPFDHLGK
Chain of Citron Rho-interacting kinase (Homo sapiens) (O14578 whole entry): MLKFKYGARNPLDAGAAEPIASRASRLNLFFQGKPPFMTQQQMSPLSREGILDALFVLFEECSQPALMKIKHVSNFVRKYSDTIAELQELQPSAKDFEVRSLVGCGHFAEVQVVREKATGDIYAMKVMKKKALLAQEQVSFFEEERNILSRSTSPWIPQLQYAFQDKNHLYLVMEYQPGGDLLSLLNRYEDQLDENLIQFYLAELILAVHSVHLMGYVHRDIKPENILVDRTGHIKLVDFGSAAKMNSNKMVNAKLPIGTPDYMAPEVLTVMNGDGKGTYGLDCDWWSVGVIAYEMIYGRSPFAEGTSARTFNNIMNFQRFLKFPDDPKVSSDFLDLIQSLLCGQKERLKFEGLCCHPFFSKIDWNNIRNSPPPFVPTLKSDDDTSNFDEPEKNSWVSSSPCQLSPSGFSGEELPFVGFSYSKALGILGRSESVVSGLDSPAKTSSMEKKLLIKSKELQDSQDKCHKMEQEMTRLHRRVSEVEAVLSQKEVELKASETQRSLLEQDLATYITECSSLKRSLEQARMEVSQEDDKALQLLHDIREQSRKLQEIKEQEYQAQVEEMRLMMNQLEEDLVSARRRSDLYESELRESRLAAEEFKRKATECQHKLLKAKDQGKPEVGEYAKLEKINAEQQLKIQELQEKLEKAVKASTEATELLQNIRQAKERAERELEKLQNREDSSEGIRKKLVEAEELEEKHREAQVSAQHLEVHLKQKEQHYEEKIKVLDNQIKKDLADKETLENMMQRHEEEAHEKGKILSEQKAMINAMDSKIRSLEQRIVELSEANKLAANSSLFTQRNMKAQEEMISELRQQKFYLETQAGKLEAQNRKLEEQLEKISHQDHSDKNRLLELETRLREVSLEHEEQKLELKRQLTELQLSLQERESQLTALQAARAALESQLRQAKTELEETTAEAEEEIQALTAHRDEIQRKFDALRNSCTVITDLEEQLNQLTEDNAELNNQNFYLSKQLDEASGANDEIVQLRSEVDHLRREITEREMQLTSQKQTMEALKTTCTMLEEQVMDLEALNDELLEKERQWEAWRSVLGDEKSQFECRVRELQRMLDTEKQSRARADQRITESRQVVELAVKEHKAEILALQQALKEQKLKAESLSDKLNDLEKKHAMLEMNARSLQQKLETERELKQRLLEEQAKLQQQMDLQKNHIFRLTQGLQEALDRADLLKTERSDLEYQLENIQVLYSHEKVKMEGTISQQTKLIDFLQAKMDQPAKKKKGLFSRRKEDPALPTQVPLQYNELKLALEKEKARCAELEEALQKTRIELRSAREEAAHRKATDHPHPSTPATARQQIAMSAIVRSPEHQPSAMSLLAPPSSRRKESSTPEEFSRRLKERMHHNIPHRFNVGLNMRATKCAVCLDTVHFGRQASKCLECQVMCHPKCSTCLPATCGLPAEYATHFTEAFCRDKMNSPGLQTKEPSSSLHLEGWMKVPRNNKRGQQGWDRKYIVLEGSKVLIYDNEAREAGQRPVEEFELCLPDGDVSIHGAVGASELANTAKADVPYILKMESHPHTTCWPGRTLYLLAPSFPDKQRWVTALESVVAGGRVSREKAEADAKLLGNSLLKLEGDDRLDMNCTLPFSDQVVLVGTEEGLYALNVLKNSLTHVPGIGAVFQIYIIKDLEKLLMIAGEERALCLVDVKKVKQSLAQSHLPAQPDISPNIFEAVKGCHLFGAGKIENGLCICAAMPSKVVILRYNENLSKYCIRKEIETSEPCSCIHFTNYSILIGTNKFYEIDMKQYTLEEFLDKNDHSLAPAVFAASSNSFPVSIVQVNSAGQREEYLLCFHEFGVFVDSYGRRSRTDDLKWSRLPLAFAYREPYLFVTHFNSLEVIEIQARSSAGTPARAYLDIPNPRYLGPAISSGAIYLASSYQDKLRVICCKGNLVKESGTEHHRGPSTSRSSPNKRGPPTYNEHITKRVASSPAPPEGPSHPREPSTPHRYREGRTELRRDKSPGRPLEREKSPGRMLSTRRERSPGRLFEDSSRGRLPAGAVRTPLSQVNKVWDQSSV
Chain of Serine/threonine-protein kinase LATS1 (Homo sapiens) (O95835 whole entry): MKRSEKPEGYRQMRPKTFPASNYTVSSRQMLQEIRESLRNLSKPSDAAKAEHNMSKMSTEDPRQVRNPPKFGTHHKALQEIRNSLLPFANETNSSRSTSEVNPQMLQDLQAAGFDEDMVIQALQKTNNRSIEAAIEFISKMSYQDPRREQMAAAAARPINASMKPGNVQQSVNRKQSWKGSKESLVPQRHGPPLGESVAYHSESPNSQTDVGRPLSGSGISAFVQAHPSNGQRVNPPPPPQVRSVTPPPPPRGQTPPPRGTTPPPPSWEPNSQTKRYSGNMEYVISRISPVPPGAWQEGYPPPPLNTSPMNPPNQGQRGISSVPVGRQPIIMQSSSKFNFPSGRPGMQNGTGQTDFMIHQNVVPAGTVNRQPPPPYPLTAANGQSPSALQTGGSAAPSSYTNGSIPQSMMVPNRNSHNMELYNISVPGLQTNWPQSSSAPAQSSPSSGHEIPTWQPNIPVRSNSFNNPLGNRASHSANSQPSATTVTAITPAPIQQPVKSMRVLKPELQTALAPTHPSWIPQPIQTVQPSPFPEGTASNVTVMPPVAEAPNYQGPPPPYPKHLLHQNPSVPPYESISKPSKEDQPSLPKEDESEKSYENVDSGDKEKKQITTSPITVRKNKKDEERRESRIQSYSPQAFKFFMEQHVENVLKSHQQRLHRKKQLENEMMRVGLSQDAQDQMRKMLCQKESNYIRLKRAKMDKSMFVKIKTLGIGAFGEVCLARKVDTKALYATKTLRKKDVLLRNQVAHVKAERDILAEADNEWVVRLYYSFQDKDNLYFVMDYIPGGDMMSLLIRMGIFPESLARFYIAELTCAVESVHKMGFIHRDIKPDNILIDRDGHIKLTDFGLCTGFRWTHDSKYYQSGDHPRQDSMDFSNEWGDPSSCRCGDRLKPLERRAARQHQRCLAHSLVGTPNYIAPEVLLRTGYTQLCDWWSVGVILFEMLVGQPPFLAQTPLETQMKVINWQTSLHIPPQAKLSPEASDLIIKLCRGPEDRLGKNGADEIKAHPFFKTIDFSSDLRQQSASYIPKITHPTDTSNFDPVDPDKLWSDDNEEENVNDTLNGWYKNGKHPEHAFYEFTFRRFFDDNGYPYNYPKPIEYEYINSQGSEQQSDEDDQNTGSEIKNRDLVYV
Chain of Casein kinase I isoform alpha (Homo sapiens) (P48729 2-337 limits assumed): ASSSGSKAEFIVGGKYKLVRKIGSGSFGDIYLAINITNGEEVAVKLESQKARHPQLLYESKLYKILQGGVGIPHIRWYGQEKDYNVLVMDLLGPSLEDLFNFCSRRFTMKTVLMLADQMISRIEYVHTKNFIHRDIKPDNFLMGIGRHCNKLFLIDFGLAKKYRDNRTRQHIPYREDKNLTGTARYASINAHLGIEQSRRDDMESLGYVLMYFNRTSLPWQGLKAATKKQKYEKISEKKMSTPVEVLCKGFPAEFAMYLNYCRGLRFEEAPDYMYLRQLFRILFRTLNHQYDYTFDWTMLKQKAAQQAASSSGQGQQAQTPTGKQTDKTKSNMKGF

With C=CCOC(=O)c1cc(-c2ccc(/C=C3/NC(=S)NC3=O)o2)ccc1Cl the Activity [1] was 95%, the Ratio IC50 (Homo sapiens) was 6.6 and the inhibition [2] was “Dose-dependent effect”. The Activity (NB-4 [3]) was “Active”, the Activity (HL-60 [4]) was “Active” and the Activity [5] was “Not Active”. The Activity [6] was 114%, the Activity [7] was “Not Active” and the Activity [8] was 91%. For the same compound, the Activity [9] was 96%, the inhibition (NB-4 [10]) was “Dose-dependent effect” and the Activity (HL-60 [11]) was “Dose-dependent effect”.
